The target in assay [1] is T1, Histamine H1 receptor (Homo sapiens, UniProt P35367). It counts as functional, cell-based.
Assay [2] has as its target T1, Histamine H1 receptor. The format is functional, cell-based. The source holds these as a separate data set.
The target of assay [3] is T2, Muscarinic acetylcholine receptor M1 (Homo sapiens, UniProt P11229).
T2 sequence (P11229 whole entry): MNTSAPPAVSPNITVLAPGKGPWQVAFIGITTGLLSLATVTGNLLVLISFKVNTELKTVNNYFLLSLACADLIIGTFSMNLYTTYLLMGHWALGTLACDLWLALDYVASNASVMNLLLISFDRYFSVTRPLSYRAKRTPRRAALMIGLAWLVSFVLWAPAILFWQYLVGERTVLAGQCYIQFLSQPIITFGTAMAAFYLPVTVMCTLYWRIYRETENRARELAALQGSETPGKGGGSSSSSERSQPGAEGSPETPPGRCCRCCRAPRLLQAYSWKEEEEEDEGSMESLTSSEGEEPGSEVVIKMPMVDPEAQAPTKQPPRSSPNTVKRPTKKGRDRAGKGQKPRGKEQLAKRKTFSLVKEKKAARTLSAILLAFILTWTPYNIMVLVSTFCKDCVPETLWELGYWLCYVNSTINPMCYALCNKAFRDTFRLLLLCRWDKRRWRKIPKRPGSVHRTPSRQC

For assay [4], the target named is T3, Type-1 angiotensin II receptor (Homo sapiens, UniProt P30556).
T3 sequence (P30556 whole entry): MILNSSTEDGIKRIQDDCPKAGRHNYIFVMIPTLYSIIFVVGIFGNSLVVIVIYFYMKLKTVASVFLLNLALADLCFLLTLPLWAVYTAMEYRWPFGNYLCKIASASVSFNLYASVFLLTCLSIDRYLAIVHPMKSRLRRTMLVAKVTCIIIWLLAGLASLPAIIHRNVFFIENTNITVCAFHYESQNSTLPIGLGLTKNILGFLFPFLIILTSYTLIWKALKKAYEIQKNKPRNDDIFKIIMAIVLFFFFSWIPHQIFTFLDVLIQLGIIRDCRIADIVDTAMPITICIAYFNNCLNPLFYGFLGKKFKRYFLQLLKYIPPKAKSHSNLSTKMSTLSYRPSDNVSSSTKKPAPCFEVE

In assay [5] the target is T4, Muscarinic acetylcholine receptor M2 (Homo sapiens, UniProt P08172).
T4 sequence (P08172 whole entry): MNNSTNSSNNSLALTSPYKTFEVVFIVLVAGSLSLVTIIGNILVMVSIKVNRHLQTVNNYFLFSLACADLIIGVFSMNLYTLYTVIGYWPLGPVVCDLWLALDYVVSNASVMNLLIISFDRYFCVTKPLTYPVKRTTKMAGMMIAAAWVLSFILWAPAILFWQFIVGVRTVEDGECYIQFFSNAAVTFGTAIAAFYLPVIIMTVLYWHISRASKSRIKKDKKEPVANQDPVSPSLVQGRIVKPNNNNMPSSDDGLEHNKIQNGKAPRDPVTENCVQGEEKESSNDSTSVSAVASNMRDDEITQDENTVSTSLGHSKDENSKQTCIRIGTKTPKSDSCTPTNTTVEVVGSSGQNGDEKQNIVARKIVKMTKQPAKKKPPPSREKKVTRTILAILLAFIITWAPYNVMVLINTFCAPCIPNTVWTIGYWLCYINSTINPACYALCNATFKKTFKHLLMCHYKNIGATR

Another assay concerns the target D(1A) dopamine receptor (Homo sapiens, UniProt P21728).
The target of assay [6] is T5, Oxysterols receptor LXR-beta (Homo sapiens, UniProt P55055).
T5 sequence (P55055 whole entry): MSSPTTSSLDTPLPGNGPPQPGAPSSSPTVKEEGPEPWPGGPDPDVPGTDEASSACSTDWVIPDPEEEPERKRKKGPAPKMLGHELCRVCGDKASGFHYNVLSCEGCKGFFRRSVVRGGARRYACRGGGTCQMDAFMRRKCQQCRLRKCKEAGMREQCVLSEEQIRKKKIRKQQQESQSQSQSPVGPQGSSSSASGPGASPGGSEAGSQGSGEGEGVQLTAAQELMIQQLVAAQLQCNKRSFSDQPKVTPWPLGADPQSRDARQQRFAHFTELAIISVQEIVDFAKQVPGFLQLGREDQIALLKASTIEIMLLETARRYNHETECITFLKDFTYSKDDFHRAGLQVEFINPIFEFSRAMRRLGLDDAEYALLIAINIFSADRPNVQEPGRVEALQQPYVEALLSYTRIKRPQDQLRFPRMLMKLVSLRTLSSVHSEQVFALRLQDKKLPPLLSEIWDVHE
The format is functional.

Assay [7] has as its target T6, Retinoic acid receptor alpha (Homo sapiens, UniProt P10276).
T6 sequence (P10276 whole entry): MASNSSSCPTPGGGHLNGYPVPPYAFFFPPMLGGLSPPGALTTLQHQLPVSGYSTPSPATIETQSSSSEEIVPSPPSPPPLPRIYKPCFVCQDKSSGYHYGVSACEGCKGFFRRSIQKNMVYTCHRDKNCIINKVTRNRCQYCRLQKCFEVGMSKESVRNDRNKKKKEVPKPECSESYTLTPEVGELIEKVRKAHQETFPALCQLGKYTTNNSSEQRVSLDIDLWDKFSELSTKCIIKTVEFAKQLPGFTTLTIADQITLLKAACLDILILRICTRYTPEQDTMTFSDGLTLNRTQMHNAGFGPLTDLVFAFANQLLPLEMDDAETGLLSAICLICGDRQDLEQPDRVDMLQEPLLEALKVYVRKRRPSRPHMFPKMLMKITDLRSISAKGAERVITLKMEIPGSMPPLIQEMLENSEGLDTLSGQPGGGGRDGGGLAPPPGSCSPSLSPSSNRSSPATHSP
It counts as functional, cell-based.

For assay [8], the target named is T2, Muscarinic acetylcholine receptor M1. The format is functional, cell-based.
The target is the same in assay [9]. It counts as functional, cell-based. This is another data set of the same source.

Some results are limits rather than exact numbers.
Further: assay procedure not described here.

Chain of D(1A) dopamine receptor (P21728 whole entry): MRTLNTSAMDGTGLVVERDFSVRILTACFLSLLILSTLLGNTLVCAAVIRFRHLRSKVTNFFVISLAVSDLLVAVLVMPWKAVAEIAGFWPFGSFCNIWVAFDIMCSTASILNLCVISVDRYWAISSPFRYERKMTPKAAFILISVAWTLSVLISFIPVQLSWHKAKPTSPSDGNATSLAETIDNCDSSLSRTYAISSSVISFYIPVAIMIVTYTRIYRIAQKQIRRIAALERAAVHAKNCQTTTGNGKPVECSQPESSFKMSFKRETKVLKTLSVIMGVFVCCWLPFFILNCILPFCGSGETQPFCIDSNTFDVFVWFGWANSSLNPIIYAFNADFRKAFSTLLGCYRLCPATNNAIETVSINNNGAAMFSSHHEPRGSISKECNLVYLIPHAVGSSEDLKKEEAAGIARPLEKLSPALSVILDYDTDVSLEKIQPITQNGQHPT
T1 sequence (P35367 whole entry): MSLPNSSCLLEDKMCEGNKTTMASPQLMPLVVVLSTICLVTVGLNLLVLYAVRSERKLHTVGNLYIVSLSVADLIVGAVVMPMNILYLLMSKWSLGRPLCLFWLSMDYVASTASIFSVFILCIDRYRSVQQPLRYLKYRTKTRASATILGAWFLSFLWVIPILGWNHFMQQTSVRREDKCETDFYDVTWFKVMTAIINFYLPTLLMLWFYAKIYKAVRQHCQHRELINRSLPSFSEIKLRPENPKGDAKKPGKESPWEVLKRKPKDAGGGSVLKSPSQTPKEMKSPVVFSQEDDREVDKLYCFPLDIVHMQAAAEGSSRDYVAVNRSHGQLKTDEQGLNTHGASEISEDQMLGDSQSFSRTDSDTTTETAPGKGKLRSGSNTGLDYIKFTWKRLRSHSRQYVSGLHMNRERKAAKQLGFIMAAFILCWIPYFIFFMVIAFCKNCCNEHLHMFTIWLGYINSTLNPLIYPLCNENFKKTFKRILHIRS

Take `Nc1nc(NC2CC2)c2ncn([C@H]3C=C[C@@H](CO)C3)c2n1` [ABACAVIR]: the AC50 at Histamine H1 receptor [1] and at Histamine H1 receptor [2] was more than 30 µM each time.

In turn, `CCc1oc2ccccc2c1C(=O)c1cc(I)c(O)c(I)c1` [BENZIODARONE] came in with an AC50 in assay [3] of more than 30 µM.

With `O=C(OCC(O)CO)c1ccccc1Nc1ccnc2cc(Cl)ccc12` (centres undefined) [GLAFENINE], the AC50 in assay [4] was more than 100 µM; in assay [5] it was more than 30 µM; on D(1A) dopamine receptor, more than 30 µM.

On to `CN1C(C(=O)Nc2ccccn2)=C(O)c2sc(Cl)cc2S1(=O)=O` [LORNOXICAM], for which the AC50 in assay [6] and in [7] was more than 30 µM each time.

Take `Cc1c(C(=O)NN2CCCCC2)nn(-c2ccc(Cl)cc2Cl)c1-c1ccc(Cl)cc1` [RIMONABANT]: the half-maximal activity concentration (AC50) in assay [6] and in assay [7] was more than 30 µM in each case.

Take `Cc1cn([C@H]2C=C[C@@H](CO)O2)c(=O)[nH]c1=O` [STAVUDINE]: the AC50 (in assay [5]; at D(1A) dopamine receptor) was more than 30 µM each time.

As for `O=C(O[C@H]1C[C@H]2CC[C@@H](C1)[N+]21CCCC1)C(O)(c1ccccc1)c1ccccc1` [TROSPIUM], the AC50 in assay [8] is more than 30 µM; in assay [9], 0.0027 µM.

One may read the AC50 as the concentration at which the activity in the assay is half-maximal. Higher therefore signals activity only at high concentration.

Source of the values: ChEMBL document CHEMBL5291721, “A preclinical secondary pharmacology resource illuminates target-adverse drug reaction associations of marketed drugs” (Nat Commun, 2023).
